These results are taken from publication PMC7373712 (British Journal of Clinical Pharmacology, 2020).

Where two headings read alike, the source gives them in different places. Some results are limits rather than exact numbers.

The conditions of data set [1]: cited from earlier work.
The nature of data set [2]: Pharmacokinetics of oral microdosed FXaI cocktail. The conditions noted are these: for sex differences in pharmacokinetics (in words): 7 male, 11 female; for Cl/F (apparent oral clearance) / Ae (amount excreted in urine as parent drug): geom. mean (95% CI); for interaction / change of pharmacokinetics during voriconazole (in words): microdose cocktail with voriconazole.
Data set [3] can be described thus: Safety: adverse events in study participants. Particulars: for total number of AEs / participants with adverse event (AE): during the treatment named; for participants with adverse event (AE): healthy participants.
A further data set deals with CYP3A. Put plainly: CYP3A activity by oral microdosed midazolam. The conditions noted are these: for AUC: both, human, in vivo, geom. mean.
The conditions of data set [4]: cited from earlier work. The source holds these as a separate data set.
Setting [5] is: microdose cocktail alone, cobicistat cohort (n = 6).
[6] abbreviates: microdose cocktail alone, rifampicin cohort (n = 6).
Setting [7] is: microdose cocktail alone, voriconazole cohort (n = 6).
The mark [8] stands for this setting: microdose cocktail during voriconazole (n = 6).
[9] abbreviates: FXaI with cobicistat / FXaI alone.

With `COc1ccc(-n2nc(C(N)=O)c3c2C(=O)N(c2ccc(N4CCCCC4=O)cc2)CC3)cc1` [apixaban], in data set [1] (given orally), the “excreted unchanged into faeces and urine” value is no less than 50%; the “fraction metabolised by CYP1A2 and CYP2J2” value was “about 6%”; the “fraction metabolised via CYP3A” value was “approximately 15%”; the “not identified or recovered so far” value is on record as “about 22%”. In data set [2], the “sex differences in pharmacokinetics (in words)” value (“sex differences” below) was “No sex differences” and the “interaction / change of pharmacokinetics during voriconazole (in words)” value (“interaction / change” for short) is reported as “minor interaction”. Moreover, in data set [2] (by cobicistat), the “Cl/F reduced to (% of FXaI alone)” value is reported as 60%, the “Vss/F reduced to (% of FXaI alone)” value is given as roughly 50%, the “increase of AUC” value amounted to 67% and the reduction of clearance stood at 40%. Further, in data set [2] (by single dose rifampicin), the “Cl/F reduced to (% of FXaI alone)” value was found to be 75%, the “Vss/F reduced to (% of FXaI alone)” value is on record as roughly 50%, the “effect on Cmax (increase)” value was 69% and the reduction of clearance came out at 25%. Also, in data set [2] (by single dose rifampicin), the “terminal elimination half-life shortening” value is roughly 40%. Further, in data set [2] (by voriconazole), the “Cl/F reduced to (% of FXaI alone)” value was determined as 75%, the “effect on Cmax (increase)” value was 15% and the “reduction of apparent oral clearance (Cl/F)” value stood at 25%. Besides, the “renal clearance reduced to (% of FXaI alone)” value in data set [2] (during cobicistat) is reported as 70%. In data set [2] (setting [5]), the “Cl/F (apparent oral clearance)” value is 66.4 (60.0–73.5) mL/min. The “Cl/F (apparent oral clearance)” value in data set [2] (setting [6]) is recorded as 53.6 (44.5–64.6) mL/min. The “Cl/F (apparent oral clearance)” value in data set [2] (setting [7]) is recorded as 78.0 (69.0–88.4) mL/min. The “Cl/F (apparent oral clearance)” value in data set [2] (setting [8]) is 58.8 (42.5–81.4) mL/min.

Regarding `CC(C)c1nc(CN(C)C(=O)N[C@@H](CCN2CCOCC2)C(=O)N[C@H](CC[C@H](Cc2ccccc2)NC(=O)OCc2cncs2)Cc2ccccc2)cs1` [cobicistat], in data set [3], the “total number of AEs” value came out at 3 and the “participants with adverse event (AE)” value was 3 out of 6.

For `Cn1c(Cn2ccc(C(F)(F)F)c(Oc3cc(Cl)cc(C#N)c3)c2=O)n[nH]c1=O` [doravirine], the elimination half-life in data set [1] (alone) was 18.6 h; in data set [1] (with a single dose of rifampicin) it was 5.5 h.

`CN1CCc2nc(C(=O)N[C@@H]3C[C@@H](C(=O)N(C)C)CC[C@@H]3NC(=O)C(=O)Nc3ccc(Cl)cn3)sc2C1` [edoxaban]: in data set [1], the oral bioavailability is ~ 50%. In data set [1] (of an oral dose), the “excreted unchanged into urine” value was “About 24%”. The “found in faeces as parent drug” value in data set [1] (of the oral dose) is given as ~ 50%. Besides, the “sex differences” value in data set [2] was “No sex differences”. For the same compound, the “Cl/F reduced to (% of FXaI alone)” value in data set [2] (by cobicistat) was 57%; in data set [2] (by single dose rifampicin), 53%. Further, the “Vss/F reduced to (% of FXaI alone)” value was found to be 42% in data set [2] (by cobicistat) and 37% in data set [2] (by single dose rifampicin). The “terminal elimination half-life shortening” value turned out to be 25% in data set [2] (by cobicistat) and 30% in data set [2] (by single dose rifampicin). Further, the “increased fraction excreted unchanged into urine” value in data set [2] (by single oral dose of rifampicin) was 48.7%. The “Ae (amount excreted in urine as parent drug)” value in data set [2] (setting [5]) was 32.3 (23.6–44.3) % of dose; in data set [2] (setting [6]), 27.2 (19.1–38.8) % of dose; in data set [2] (setting [7]) it was 24.4 (17.7–33.6) % of dose; in data set [2] (setting [8]) it was 29.4 (21.2–40.8) % of dose. Further, the “Cl/F (apparent oral clearance)” value in data set [2] (setting [5]) is listed as 682 (578–804) mL/min; in data set [2] (setting [6]), 643 (499–829) mL/min; in data set [2] (setting [7]) it was 882 (619–1255) mL/min; in data set [2] (setting [8]), 700 (445–1100) mL/min. In data set [2], the “interaction / change” value is “none and No significant change”.

Broadly, the AUC is concentration integrated over time. In the case of `Cc1ncc2n1-c1ccc(Cl)cc1C(c1ccccc1F)=NC2` [midazolam], the area under the curve (AUC) was 0.27 ng·h/mL with CYP3A (AUC2–4, 10 μg midazolam + cobicistat (n = 6)) and 0.285 ng·h/mL in the data set on CYP3A (AUC2–4, 10 μg midazolam + voriconazole (n = 6)).

In the case of `CO[C@H]1/C=C/O[C@@]2(C)Oc3c(C)c(O)c4c(O)c(c(/C=N/N5CCN(C)CC5)c(O)c4c3C2=O)NC(=O)/C(C)=C\C=C\[C@H](C)[C@H](O)[C@@H](C)[C@@H](O)[C@@H](C)[C@H](OC(C)=O)[C@@H]1C` [rifampicin], the “participants with adverse event (AE)” value in data set [3] is “none”.

Consider `O=C(NC[C@H]1CN(c2ccc(N3CCOCC3=O)cc2)C(=O)O1)c1ccc(Cl)s1` [rivaroxaban], for which the “AUC ratio with and without ketoconazole” value in data set [4] (microdosed FXaI cocktail) is given as 2.27. In addition, the “AUC ratio with and without ketoconazole” value in data set [4] (therapeutic dose, single-dose, 200 mg ketoconazole) is 1.82. The “AUC ratio with and without ketoconazole” value in data set [4] (therapeutic dose, steady-state, 400 mg ketoconazole) is on record as 2.58. Also, in data set [1], the “share of CYP3A and CYP2J2 in total clearance” value is listed as ~ 32%. Also, in data set [2], the “sex differences” value is recorded as “No sex differences” and the “interaction / change” value was “minor interaction”. Further, in data set [2] (setting [9]), the “AUC ratio (AUCR)” value turned out to be 2.0 and the Cmax ratio was 1.39. In addition, in data set [2] (by cobicistat), the “Vss/F reduced to (% of FXaI alone)” value is on record as 72%, the “renal clearance reduced by” value is reported as roughly 50% and the “terminal elimination half-life prolongation” value is 40%. In data set [2] (by single dose rifampicin), the “Vss/F reduced to (% of FXaI alone)” value was determined as 64% and the “terminal elimination half-life shortening” value was determined as 31%. Also, in data set [2] (by voriconazole), the “change of AUC” value is reported as 33% and the “reduction of apparent oral clearance (Cl/F)” value was 33%. Moreover, in data set [2] (setting [5]), the “Ae (amount excreted in urine as parent drug)” value was 44.5 (32.5–61.1) % of dose and the “Cl/F (apparent oral clearance)” value is given as 104 (84–129) mL/min. In data set [2] (setting [6]), the “Ae (amount excreted in urine as parent drug)” value is given as 54.8 (48.7–61.6) % of dose and the “Cl/F (apparent oral clearance)” value was 113 (84–152) mL/min. In data set [2] (setting [7]), the “Ae (amount excreted in urine as parent drug)” value is given as 53.7 (46.2–60.1) % of dose and the “Cl/F (apparent oral clearance)” value is given as 121 (85–172) mL/min. Further, in data set [2] (setting [8]), the “Ae (amount excreted in urine as parent drug)” value is 55.5 (47.8–64.4) % of dose and the “Cl/F (apparent oral clearance)” value is recorded as 92 (62–137) mL/min.

Turning to `C[C@@H](c1ncncc1F)[C@](O)(Cn1cncn1)c1ccc(F)cc1F` [voriconazole], in data set [3], the “total number of AEs” value came to 7 and the “participants with adverse event (AE)” value is on record as “Five out of 6”. In addition, the “visual disturbances (number of AEs)” value in data set [3] (during voriconazole treatment) turned out to be 4. In the data set with CYP3A (judged from microdosed midazolam exposure), the “CYP3A inhibition (in words)” value is listed as “strong CYP3A inhibitors”.
